Reference: patent publication US5079254A, “Derivatives of 6-aminooctahydroindolizinetriol” (Merrell Dow Pharmaceuticals Inc., priority 1990, dated 1992)

Legend:
[1] = tested on: Lewis lung tumor cell; conditions: female mice implanted with Lewis lung tumor cell; Bernacki, page 93; cited from earlier work
[2] = target: hexosaminidase from porcine placenta; experiment: Inhibition of hexosaminidase activity, 4-nitrophenyl-N-acetyl-β-glucosaminide substrate, 96-well microplate (porcine placenta enzyme); type: biochemical; conditions: pH 4.5, 10 min preincubation at room temperature, substrate 30 min at 37° C., read at 405 nm
Description: (§1) In a preliminary screen, test compounds are studied over a range of concentrations from 0.1 to 100 μg/ml. together with a control sample. Specifically, the test compound is added to individual wells and made up to a total volume of 100 μl. To each well is added 25 μl of 1M sodium citrate buffer pH 4.5 and 25 μl of enzyme (1 mμ) in 10 mM sodium citrate at pH 4.5. The material is mixed and incubated at room temperature for 10 minutes. Then 50 μl of 10 mM substrate (4-nitrophenyl-N-acetyl-8-glucosaminide, Sigma # N-91376) is added and the mixture is incubated at 37° C. for 30 minutes. The reaction is then killed by adding 100 μl of 2% sodium carbonate and the yellow color due to release of 4-nitrophenol is read at 405 nm in an Elisa reader. The results obtained in this preliminary screen are then examined and, if inhibition has taken place, the procedure is repeated using several concentrations over a narrower range to provide for a more precise determination of the IC50.

[3] = target: hexosaminidase from human placenta; experiment: Inhibition of hexosaminidase activity, 4-nitrophenyl-N-acetyl-β-glucosaminide substrate, 96-well microplate (human placenta enzyme); type: biochemical; conditions: pH 4.5, 10 min preincubation at room temperature, substrate 30 min at 37° C., read at 405 nm
Description: as §1

For `CC(=O)NC1=CO[C@H](CO)[C@@H](O)[C@@H]1O` [2-acetamidoglucal], the “increase of life span” value [1] is listed as 63%.

In the case of `CC(=O)N[C@H]1CN2CC[C@H](O)[C@@H]2[C@@H](O)[C@@H]1O` [[1S-(1α,6β,7α,8β,8aβ)]-6-acetamidooctahydro-1,7,8-indolizinetriol], the “IC50 value for the inhibition of hexosaminidase from porcine placenta” value [2] is reported as 0.1 µg/mL and the “IC50 value for the inhibition of hexosaminidase from human placenta” value [3] is reported as 0.1 µg/mL.
